The test system of assay [1] is PTP1B. Particulars: cited from earlier work.
Assay [2] concerns insulin‐resistant HepG2 cells. The experiment in a line: Insulin‐resistant HepG2 model, western blotting of PTP1B and pAKT. In kind it is cell-based. Particulars: 24 h, western blot. As to the method: Subsequently, we evaluated the same compounds in a HepG2 insulin‐resistant model.
Bar graphs represent the mean ± SEM of normalized values. The control levels were set at 1. T‐test significance *p < 0.05, when compared with control (DMSO). Statistical analyses were carried out using GraphPad Prism 8.0.
For the resistant insulin model using HepG2 cells, the following reagents were acquired from Sigma–Aldrich (Toluca, MEX, Mexico, and St. Louis, MO, USA): Insulin (I2643), Dulbecco's modified eagle's medium (DMEM) low glucose media (D5523), Trypsin‐EDTA solution (T4174), antibiotic‐antimycotic solution(A5955), dimethyl sulfoxide (DMSO‐D8418), sodium deoxycholate (D6750), triethylammonium bicarbonate buffer 1 M (TEAB‐T7408), glutaraldehyde 25% (G6275), acetic acid (695092), and crystal violet (C0775). The bicinchoninic acid protein quantitation kit (23225) and the Halt Cocktail with protease and phosphatase inhibitors (1861281) were acquired from ThermoFisherScientific. Fetal bovine serum (26140–079) was from Gibco. The chemiluminescent solution (170–5061) was acquired from Biorad. Rabbit anti‐PTP1B (5311S) and mouse anti‐β actin (3700S) primary antibodies were obtained from Cell Signaling, and secondary antibodies coupled with horseradish peroxidase were from Jackson laboratories (rabbit‐111−035, mouse‐115–035).
Treated cells with compounds were washed twice with 1 mL of PBS, and protein was extracted using 500 µL of a buffer solution containing 10% sodium deoxycholate in 10% TEAB, supplemented with a protease and phosphatase inhibitor cocktail. The extracts were heated to 80 °C for 5 min and disaggregated through passages with an insulin syringe. The cell extracts were centrifuged at 15,000 rpm for 15 min at 4 °C, and the supernatant was collected. Protein quantification was performed using the bicinchoninic acid assay method, and aliquots were prepared for western blotting. SDS/PAGE was conducted, and proteins were transferred onto a nitrocellulose membrane. The membrane was then blocked with 10% skimmed milk in TBST for 1 h and incubated overnight with primary antibodies (1:400 dilution). Secondary antibodies coupled to horseradish peroxidase were diluted 1:2000, and membranes were incubated for 1 h. The blots were documented using the ChemiDoc MP (Bio‐Rad), and densitometric analysis was performed using ImageJ (U.S. National Institutes of Health). Statistical analyses were carried out using GraphPad Prism 8.0.

Assay [3] concerns the target T1, hPTP1B1–400 (Homo sapiens, UniProt P18031).
T1 sequence (P18031 1-400): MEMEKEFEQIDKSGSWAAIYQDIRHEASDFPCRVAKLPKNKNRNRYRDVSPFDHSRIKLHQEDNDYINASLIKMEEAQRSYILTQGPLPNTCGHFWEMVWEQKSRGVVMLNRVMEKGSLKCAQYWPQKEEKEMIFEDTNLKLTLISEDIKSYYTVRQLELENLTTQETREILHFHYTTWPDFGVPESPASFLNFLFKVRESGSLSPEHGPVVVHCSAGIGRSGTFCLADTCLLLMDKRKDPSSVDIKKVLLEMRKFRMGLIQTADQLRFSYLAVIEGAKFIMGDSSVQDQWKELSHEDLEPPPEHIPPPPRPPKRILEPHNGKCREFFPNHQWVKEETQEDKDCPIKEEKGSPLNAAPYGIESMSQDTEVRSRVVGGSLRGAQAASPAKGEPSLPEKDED
Kind of assay: PTP1B activity assay, long form hPTP1B1–400 (p‐NPP). In kind it is biochemical. As to conditions: for IC50: ± S.D, p‐NPP substrate, 15 min at 37 °C, triplicate. Also noted: hPTP1B1–400 (the long form with an intrinsically disordered C‐terminal regulatory domain). As to the method: The inhibitory activity of PTP1B was assessed using two enzyme variants: hPTP1B1–285 (the short form with an N‐terminal catalytic domain) and hPTP1B1–400 (the long form with an intrinsically disordered C‐terminal regulatory domain). […] According to Coronel‐Tovar et al., the disordered region of the C‐terminal domain plays a crucial role in modulating PTP1B enzymatic activity.^[ [30] ^] […] Different concentrations of the compounds were evaluated to determine their IC50 values (Table 1 ).
Recombinant human protein tyrosine phosphatase 1B, consisting of 400 and 285 amino acid residues, was used.^[ [35] ^] […] Aliquots of 0–10 µL of the test compounds (triplicate) were taken and incubated for 15 min at 37 °C with 85 µL of Tris buffer solution (50 mM, pH 6.8) containing PTP1B enzyme and 5 µL of p‐nitrophenyl phosphate substrate (p‐NPP, 10 mM). Absorbance was then measured at a wavelength of 405 nm. The inhibitory activity was determined according to Equation (1). (1) % PTP1B=(A405b/A405c)×100 where % PTP1B: Is the percentage of inhibition. A 405c: Is the corrected absorbance of the blank (A 405initial–A 405final). A 405b: Is the corrected absorbance of the compounds (A 405control–A 405compound).

The target in assay [4] is T1, hPTP1B1–400. Kind of assay: Kinetic studies of PTP1B (hPTP1B1–400).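 On all read-outs here: enzyme kinetics run across a range of substrate and inhibitor levels, control lacking inhibitor, triplicate runs, parameters derived by fitting Michaelis–Menten style equations.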 Particulars: for Inhibition type: hPTP1B1–400; for K m / V max: hPTP1B1–400 with inhibitor.
Description: Kinetic analyses were performed at various substrate and inhibitor concentrations.
The negative control was prepared with the enzyme and substrate in the absence of the inhibitor. Experiments were conducted in triplicate.^[ [30] ^] […] The kinetic parameters of enzyme inhibition, K m and V max, were determined by fitting the data to the Michaelis‐Menten model, Equation (3) (OriginPro 2018 (64‐bit) SR1). (3) y=VmaxX/Km+X´ where V max: is the maximum velocity, X: is the inhibitor concentration, K m: Michaelis constant.
(4) y=Vmax(X)/(Km/1+I/Ki)+X where V max: maximum velocity, X: substrate concentration, I: inhibitor concentration, K m: Michaelis constant, K i : inhibition constant.
Assay [5] deals with T2, TCPTP (Homo sapiens, UniProt P17706).
T2 sequence (P17706 1-415): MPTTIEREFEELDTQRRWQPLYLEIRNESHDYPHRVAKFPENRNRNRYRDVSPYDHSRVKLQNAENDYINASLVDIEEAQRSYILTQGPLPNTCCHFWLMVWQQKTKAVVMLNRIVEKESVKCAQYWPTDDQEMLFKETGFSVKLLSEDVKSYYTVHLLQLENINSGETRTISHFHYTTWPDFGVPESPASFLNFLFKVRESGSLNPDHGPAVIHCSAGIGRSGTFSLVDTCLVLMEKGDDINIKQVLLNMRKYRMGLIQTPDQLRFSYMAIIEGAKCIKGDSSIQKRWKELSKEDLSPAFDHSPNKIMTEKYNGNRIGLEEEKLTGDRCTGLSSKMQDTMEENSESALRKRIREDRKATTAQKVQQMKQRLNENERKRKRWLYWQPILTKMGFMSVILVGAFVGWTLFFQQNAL
The experiment in a line: T‐cell protein tyrosine phosphatase (TCPTP) activity assay (p‐NPP). In kind it is biochemical. As to conditions: for TCPTP inhibition (in words): up to 100 μM. The protocol: The effectiveness and safety of protein tyrosine phosphatase (PTP) inhibitors depend on their specificity. PTP1B and TCPTP serve different functions: PTP1B is involved in metabolism and cancer, while TCPTP regulates immune function. Inhibiting TCPTP could impact the immune response, whereas inhibiting PTP1B may benefit metabolic diseases without these side effects.^[ [20] ^, [34] ^, [35] ^] […] These compounds were assessed up to 100 μM (Table 1).
TCPTP enzyme reported by Mendoza et al. was used for this assay. […] Aliquots of 0–10 µL (triplicate) of the newly synthesized compounds, positive control, and solvent were taken. These were incubated with 85 µL of enzyme solution (Tris, 50 mM, pH 6.8, TCPTP) and 5 µL of substrate (p‐NPP, 10 mM) for 15 min at 37 °C.

The test system of assay [6] is hPTP1B1−322. Also noted: method as in PMID 37628991. As to conditions: previous research, cited from earlier work; for IC50: read-out: IC50 against hPTP1B1−322; for Ki: read-out: K i against hPTP1B1−322.
Where [7] appears, read: ± S.D, assessed up to 100 μM, read-out: TCPTP IC50.

Read-outs that look alike come from different tables or passages of the source. Where only a bound is given, the exact number is not on record here.

As to `Cc1ccc(C(=O)Nc2ccc(S(=O)(=O)O)c3cc(S(=O)(=O)O)cc(S(=O)(=O)O)c23)cc1NC(=O)c1cccc(NC(=O)Nc2cccc(C(=O)Nc3cc(C(=O)Nc4ccc(S(=O)(=O)O)c5cc(S(=O)(=O)O)cc(S(=O)(=O)O)c45)ccc3C)c2)c1` [SU, suramin], in assay [1], the “type of PTP1B inhibition” value was “competitive and reversible inhibitor”.
On to `CN(C)C(=N)N=C(N)N` [metformin], for which, in assay [2], the “AKT phosphorylation (pAKT) levels” value is listed as “significant increase” and the PTP1B levels result is “neither metformin, ursolic acid, nor GA derivatives significantly reduced PTP1B levels”.
As a reminder, the IC50 is the concentration that inhibits the measured activity by half. `CC1(C(=O)O)CCC2(C)CCC3(C)C(=CCC4C5(C)Cc6c([nH]c7ccc(C(F)(F)F)cc67)C(C)(C)C5CCC43C)C2C1` (stereo not shown) [Compound 3b]: the IC50 in assay [3] was 2.84 ± 0.26 µM; in assay [5] (setting [7]), over 100 µM. The Ki in assay [4] (K i, ± S.D, hPTP1B1–400, p‐NPP 0.1 to 0.5 mM) was determined as 1.16 ± 0.13 µM. Besides, the Inhibition type entry in assay [4] is reported as “uncompetitive inhibition”. Also, the K m in assay [4] (± S.D) was 530 ± 80 µM. Further, in assay [4] (± S.D), the V max stood at 0.63 ± 0.06 mM/min.
As for `CC1(C)[C@@H](O)CC[C@]2(C)[C@H]3C(=O)C=C4[C@@H]5C[C@@](C)(C(=O)O)CC[C@]5(C)CC[C@@]4(C)[C@]3(C)CC[C@@H]12` [18β‐GA, 18β‐glycyrrhetinic acid], the Inhibition type entry in assay [4] is recorded as “uncompetitive inhibition”. Also, in assay [4] (± S.D), the K m was 2830 ± 960 µM and the V max was 3.13 ± 0.94 mM/min. Besides, in assay [5], the IC50 was over 100 µM and the “TCPTP inhibition (in words)” value is reported as “do not inhibit TCPTP”. Further, in assay [6], the “type of inhibition against hPTP1B1−322” value is given as “competitive inhibition”, the IC50 is 26.1 µM and the Ki was 16.2 µM.
As for `CC1(C)[C@@H](O)CC[C@]2(C)[C@H]3C(=O)C=C4[C@H]5C[C@@](C)(C(=O)O)CC[C@]5(C)CC[C@@]4(C)[C@]3(C)CC[C@@H]12` [18α‐GA, 18α‐glycyrrhetinic acid], the Inhibition type entry in assay [4] is recorded as “uncompetitive inhibition”. In assay [4] (± S.D), the K m amounted to 2110 ± 680 µM and the V max amounted to 1.94 ± 0.54 mM/min. Also, in assay [5], the IC50 is over 100 µM and the “TCPTP inhibition (in words)” value is reported as “do not inhibit TCPTP”. Also, in assay [6], the “type of inhibition against hPTP1B1−322” value is reported as “competitive inhibition”, the IC50 was 10.4 µM and the Ki was 3.17 µM.
Regarding `Cc1ccc(-n2ncc3c2C(C)(C)C2CCC4(C)C(CC=C5C6CC(C)(C(=O)O)CCC6(C)CCC54C)C2(C)C3)cc1` (stereo not shown) [Compound 5a], the values for the IC50 in assay [3] and in assay [5] (setting [7]) were 2.05 ± 0.09 µM and over 100 µM, respectively.
For `Cc1ccc(-n2ncc3c2C(C)(C)C2CCC4(C)C(CC=C5C6CC(C)(C(=O)O)CCC6(C)CCC54C)C2(C)C3)cc1` (stereo not shown) [Compound 5b], in that order: 2.54 ± 0.05 µM and over 100 µM.
Take `CC1(C(=O)O)CCC2(C)CCC3(C)C(=CCC4C5(C)Cc6c([nH]c7ccc(C(F)(F)F)cc67)C(C)(C)C5CCC43C)C2C1` (stereo not shown) [Compound 3a]: the “potency relative to 18α‐GA” value in assay [3] (hPTP1B1–400) is “half as potent”. Moreover, the IC50 in assay [3] was 4.44 ± 0.22 µM; in assay [5] (setting [7]) it was over 100 µM.
In the case of `[Na+].[Na+].[Na+].[O]=[V]([O-])([O-])[O-]` [SOV, sodium orthovanadate], the “type of PTP1B inhibition” value in assay [1] is “nonselective, competitive, and reversible inhibitor”. Besides, in assay [5], the “TCPTP inhibition (in words)” value was “inhibited both PTP1B and TCPTP”.
As for `C[C@H]1[C@H](C)CC[C@]2(C(=O)O)CC[C@]3(C)C(=CC[C@@H]4[C@@]5(C)CC[C@H](O)C(C)(C)[C@@H]5CC[C@]43C)[C@H]12` [UA, ursolic acid], in assay [2], the “AKT phosphorylation (pAKT) levels” value was “did not demonstrate a notable change” and the PTP1B levels result is listed as “neither metformin, ursolic acid, nor GA derivatives significantly reduced PTP1B levels”. The same molecule had an IC50 in assay [5] of over 100 µM.

The record behind these values is article PMC12640663 (Chemmedchem, 2025).
